Target: T1, ΔF508-CFTR stably expressed in NIH3T3 cells (Homo sapiens, UniProt P13569, DEL508-508)
T1 construct: expressed in transfected cells
Assay: Membrane potential optical (FRET/VIPR) assay for ΔF508-CFTR potentiation
Type: cell-based
Conditions: NIH3T3, read-out: % Efficacy (relative modulating efficacy in comparison with genistein), normalized to peak genistein response
Source text: Membrane potential optical methods for assaying ΔF508-CFTR potentiation properties of compounds.
These voltage sensitive assays are based on the change in fluorescence resonant energy transfer (FRET) between the membrane-soluble, voltage-sensitive dye, DiSBAC2(3), and a fluorescent phospholipid, CC2-DMPE, which is attached to the outer leaflet of the plasma membrane and acts as a FRET donor. Changes in membrane potential (Vm) cause the negatively charged DiSBAC2(3) to redistribute across the plasma membrane and the amount of energy transfer from CC2-DMPE changes accordingly. The changes in fluorescence emission were monitored using VIPR™ II, which is an integrated liquid handler and fluorescent detector designed to conduct cell-based screens in 96- or 384-well microtiter plates.
To identify potentiators of ΔF508-CFTR, a double-addition HTS assay format was developed (FIG. 1A). During the first addition, a Cl^−-free medium with or without test compound was added to each well. After 22 sec, a second addition of Cl^−-free medium containing 2-10 μM forskolin was added to activate ΔF508-CFTR. The extracellular Cl^− concentration following both additions was 28 mM, which promoted Cl^− efflux in response to ΔF508-CFTR activation and the resulting membrane depolarization was optically monitored using the FRET-based voltage-sensor dyes. The double-addition format has several advantages. First, it enables separation of compounds that act independently of forskolin-activated ΔF508-CFTR. Second, it allows compounds that act from the cytoplasmic surface of the channel to cross the plasma membrane and take effect. Lastly, fluorescent changes that arise from test compound addition alone can be identified.
High-throughput assay format for identifying potentiators of ΔF508-CFTR stably expressed in NIH3T3 cells.
FIG. 1A: Double-addition assay format in which Cl^−-free medium was added with or without the test compound prior to forskolin addition. The cells were incubated at 27° C. for 16-24 hr prior to use.
• Bath Solution #1: (in mM)NaCl 160, KCl 4.5, CaCl2 2, MgCl2 1, HEPES 10, pH 7.4 with NaOH. • Chloride-free bath solution: Chloride salts in Bath Solution #1 are substituted with gluconate salts. • CC2-DMPE: Prepared as a 10 mM stock solution in DMSO and stored at −20° C. • DiSBAC2(3): Prepared as a 10 mM stock in DMSO and stored at −20° C.
NIH3T3 mouse fibroblasts stably expressing ΔF508-CFTR are used for optical measurements of membrane potential. The cells are maintained at 37° C. in 5% CO2 and 90% humidity in Dulbecco's modified Eagle's medium supplemented with 2 mM glutamine, 10% fetal bovine serum, 1×NEAA, β-ME, 1×pen/strep, and 25 mM HEPES in 175 cm^2 culture flasks. For all optical assays, the cells were seeded at 30,000/well in 384-well matrigel-coated plates and cultured for 2 hrs at 37° C. before culturing at 27° C. for 24 hrs.

T1 sequence (P13569 with tags, fused parts or gaps DEL508-508): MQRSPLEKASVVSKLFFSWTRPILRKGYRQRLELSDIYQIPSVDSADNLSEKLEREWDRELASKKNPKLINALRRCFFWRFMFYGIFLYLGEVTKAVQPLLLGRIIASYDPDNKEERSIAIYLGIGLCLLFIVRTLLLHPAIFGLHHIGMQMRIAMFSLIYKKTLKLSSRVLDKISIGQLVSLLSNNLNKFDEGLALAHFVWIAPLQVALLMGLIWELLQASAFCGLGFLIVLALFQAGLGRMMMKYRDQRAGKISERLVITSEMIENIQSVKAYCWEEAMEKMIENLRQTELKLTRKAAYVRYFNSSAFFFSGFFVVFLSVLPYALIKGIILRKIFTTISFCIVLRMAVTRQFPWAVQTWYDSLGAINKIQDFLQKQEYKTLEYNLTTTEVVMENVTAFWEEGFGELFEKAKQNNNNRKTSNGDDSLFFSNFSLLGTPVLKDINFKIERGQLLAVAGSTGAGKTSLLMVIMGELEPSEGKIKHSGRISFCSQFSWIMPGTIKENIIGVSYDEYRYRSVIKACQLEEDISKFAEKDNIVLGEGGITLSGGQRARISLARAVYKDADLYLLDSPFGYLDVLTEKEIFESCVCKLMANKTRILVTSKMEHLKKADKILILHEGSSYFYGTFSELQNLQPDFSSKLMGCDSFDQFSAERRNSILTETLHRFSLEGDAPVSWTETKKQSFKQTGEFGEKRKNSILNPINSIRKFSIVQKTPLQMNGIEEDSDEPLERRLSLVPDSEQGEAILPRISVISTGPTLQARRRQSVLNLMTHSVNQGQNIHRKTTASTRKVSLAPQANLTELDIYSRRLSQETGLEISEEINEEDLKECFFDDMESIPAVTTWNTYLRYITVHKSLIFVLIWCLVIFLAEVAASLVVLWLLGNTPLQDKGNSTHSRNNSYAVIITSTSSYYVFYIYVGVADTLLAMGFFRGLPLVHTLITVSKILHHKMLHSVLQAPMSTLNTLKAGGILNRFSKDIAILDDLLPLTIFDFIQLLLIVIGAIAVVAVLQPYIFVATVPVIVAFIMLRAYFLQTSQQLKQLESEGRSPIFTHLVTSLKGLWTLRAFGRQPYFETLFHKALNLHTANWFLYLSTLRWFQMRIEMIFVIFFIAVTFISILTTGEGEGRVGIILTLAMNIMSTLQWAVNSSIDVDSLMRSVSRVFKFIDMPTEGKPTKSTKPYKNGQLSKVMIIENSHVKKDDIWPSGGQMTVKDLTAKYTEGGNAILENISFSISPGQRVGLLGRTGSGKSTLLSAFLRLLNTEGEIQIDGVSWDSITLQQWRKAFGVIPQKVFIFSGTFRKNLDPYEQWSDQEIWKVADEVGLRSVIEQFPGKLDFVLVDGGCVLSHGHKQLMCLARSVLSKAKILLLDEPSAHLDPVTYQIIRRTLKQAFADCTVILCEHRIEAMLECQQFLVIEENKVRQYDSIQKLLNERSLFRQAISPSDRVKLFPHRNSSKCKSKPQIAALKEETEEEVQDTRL

SMILES | Emax
CCSc1ncccc1-c1cc(-c2ccccc2)n[nH]1 [I-3] | 35 to 75%
Fc1ccccc1-c1cc(-c2ccccc2)n[nH]1 [I-4] | 35 to 75%
CCCSc1ncccc1-c1cc(-c2ccccc2)n[nH]1 [I-5] | 35 to 75%
Fc1ccccc1-c1cc(-c2ccccc2F)[nH]n1 [I-6] | 35 to 75%
Fc1ccccc1-c1cc(-c2ccccc2Cl)[nH]n1 [I-7] | 35 to 75%
Fc1ccccc1-c1cc(-c2cccc(Cl)c2)[nH]n1 [I-9] | 35 to 75%
Fc1ccccc1-c1cc(-c2ccc3c(c2)OC(F)(F)O3)[nH]n1 [I-10] | 35 to 75%
c1ccc(-c2cc(-c3cccc4c3OCO4)[nH]n2)cc1 [I-15] | 35 to 75%
FC(F)(F)Oc1ccc(-c2cc(-c3ccccc3)n[nH]2)cc1 [I-16] | 35 to 75%
Fc1ccccc1-c1cc(-c2ccc(OC(F)(F)F)cc2)[nH]n1 [I-17] | 35 to 75%
Fc1ccccc1-c1cc(-c2cccc(OC(F)(F)F)c2)[nH]n1 [I-18] | 35 to 75%
Cc1cccc(-c2cc(-c3ccccc3)n[nH]2)c1 [I-19] | 35 to 75%
COc1ccc(-c2cc(-c3ccccc3O)n[nH]2)cc1OC [IA-1] | 35 to 75%
COc1ccc(O)c(-c2cc(-c3ccc(F)cc3)[nH]n2)c1 [IA-2] | 35 to 75%
COc1cccc(O)c1-c1cc(-c2ccccc2)n[nH]1 [IA-3] | 35 to 75%
Cc1ccc(O)c(-c2cc(-c3ccccc3[N+](=O)[O-])[nH]n2)c1 [IA-5] | > 75%
Oc1ccc(F)cc1-c1cc(-c2ccccc2C(F)(F)F)[nH]n1 [IA-6] | > 75%
Cc1ccc(O)c(-c2cc(-c3ccc(-c4cccc(C(F)(F)F)c4)o3)n[nH]2)c1 [IA-7] | 35 to 75%
Oc1ccccc1-c1cc(-c2ccc(F)cc2)[nH]n1 [IA-8] | 35 to 75%
Cc1ccc(O)c(-c2cc(-c3ccc(OCc4ccccc4)cc3)n[nH]2)c1 [IA-10] | 35 to 75%
COc1ccc(-c2cc(-c3ccccc3O)n[nH]2)cc1 [IA-11] | 35 to 75%

SMILES | Emax
CCCc1ccc(O)c(-c2cc(-c3ccccc3)[nH]n2)c1 [IA-14] | > 75%
COc1ccc(O)c(-c2cc(-c3ccccc3C(F)(F)F)n[nH]2)c1 [IA-16] | 35 to 75%
Cc1ccc(O)c(-c2cc(-c3ccc(C(F)(F)F)c(C)c3)n[nH]2)c1 [IA-17] | 35 to 75%
COc1ccc(O)c(-c2cc(-c3ccccc3)[nH]n2)c1 [IA-18] | 35 to 75%
Oc1ccc(Cl)cc1-c1cc(-c2ccccc2)[nH]n1 [IA-19] | 35 to 75%
O=[N+]([O-])c1ccccc1-c1cc(-c2cc(F)ccc2O)[nH]n1 [IA-20] | > 75%
Oc1ccc(F)cc1-c1cc(-c2ccccc2)n[nH]1 [IA-21] | 35 to 75%
COc1ccc(-c2cc(-c3cc(C)ccc3O)n[nH]2)cc1 [IA-22] | 35 to 75%
Cc1ccccc1-c1cc(-c2ccccc2O)n[nH]1 [IA-24] | 35 to 75%
Cc1ccc(O)c(-c2cc(-c3ccc4c(c3)OCO4)n[nH]2)c1 [IA-25] | 35 to 75%
CC(C)c1ccc(O)c(-c2cc(-c3ccccc3)[nH]n2)c1 [IA-26] | > 75%
Cc1ccc(O)c(-c2cc(-c3cccnc3)n[nH]2)c1 [IA-27, 4-Methyl-2-(5-pyridin-3-yl-1H-pyrazol-3-yl)phenol] | 35 to 75%
Cc1ccc(O)c(-c2cc(-c3cccs3)n[nH]2)c1 [IA-28] | > 75%
Cc1ccc(O)c(-c2cc(-c3ccccc3-c3ccncc3)n[nH]2)c1 [IA-29] | 35 to 75%
Cc1ccc(O)c(-c2cc(-c3ccccc3C#N)n[nH]2)c1 [IA-30] | 35 to 75%
Oc1ccc(-c2cc(-c3ccccc3O)[nH]n2)cc1 [IA-33] | 35 to 75%
Cc1ccc(O)c(-c2cc(-c3ccccc3O)n[nH]2)c1 [IA-34] | < 35%
Cc1ccc(O)c(-c2cc(-c3ccc(Br)cc3)[nH]n2)c1 [IA-35] | > 75%
Cc1cc(O)c(-c2cc(-c3ccccc3)n[nH]2)cc1C [IA-36] | 35 to 75%
CSc1ncccc1-c1cc(-c2ccccc2O)n[nH]1 [IA-37] | 35 to 75%
COc1cccc(-c2n[nH]c(-c3ccccc3O)c2OC)c1 [IA-38] | 35 to 75%

SMILES | Emax
CC(=O)Nc1cccc(-c2cc(-c3cc(C)ccc3O)[nH]n2)c1 [IA-40] | 35 to 75%
Cc1ccc(O)c(-c2cc(-c3ccccc3C(F)(F)F)n[nH]2)c1 [IA-41] | 35 to 75%
Cc1ccc(O)c(-c2cc(-c3cc(C(F)(F)F)oc3C)n[nH]2)c1 [IA-42] | > 75%
Oc1cccc(-c2cc(-c3ccccc3O)[nH]n2)c1 [IA-43] | > 75%
Cc1ccc(O)c(-c2cc(-c3ccc(F)c(F)c3)n[nH]2)c1 [IA-44] | 35 to 75%
Cc1ccc(O)c(-c2cc(-c3ccccc3OC(F)(F)F)n[nH]2)c1 [IA-45] | > 75%
Cc1ccc(O)c(-c2cc(-c3ccccc3Cl)[nH]n2)c1 [IA-48] | < 35%
Cc1ccc(O)c(-c2cc(-c3cc(C(C)(C)C)oc3C)n[nH]2)c1 [IA-50] | 35 to 75%
Cc1ccc(O)c(-c2cc(-c3ccc(F)c(Cl)c3)n[nH]2)c1 [IA-51] | 35 to 75%
O=[N+]([O-])c1ccccc1-c1cc(-c2cc(Cl)ccc2O)n[nH]1 [IA-52] | > 75%
Cc1ccc(O)c(-c2cc(-c3cccc(C)c3C)n[nH]2)c1 [IA-53] | 35 to 75%
Oc1ccc(-c2nnn[nH]2)cc1-c1cc(-c2ccccc2)n[nH]1 [IA-54] | 35 to 75%
COc1ccc(O)c(-c2cc(-c3ccccc3Cl)[nH]n2)c1 [IA-55] | 35 to 75%
Cc1ccc(O)c(-c2cc(-c3c(F)ccc(C)c3F)n[nH]2)c1 [IA-56] | 35 to 75%
Cc1ccc(-c2cc(-c3ccccc3Cl)[nH]n2)c(O)c1 [IA-58] | 35 to 75%
Cc1ccc(-c2cc(-c3cc(C)ccc3O)n[nH]2)cc1 [IA-59] | 35 to 75%
COc1ccc(O)c(-c2cc(-c3ccccc3C)[nH]n2)c1 [IA-62] | 35 to 75%
Cc1ccc(-c2cc(-c3ccc(F)cc3)[nH]n2)c(O)c1 [IA-63] | < 35%
Cc1ccc(O)c(-c2cc(-c3cc(C(F)(F)F)nn3-c3ccc([N+](=O)[O-])cc3)n[nH]2)c1 [IA-65] | 35 to 75%
COc1cccc(-c2cc(-c3cc(C)ccc3O)[nH]n2)c1 [IA-66] | 35 to 75%
Oc1ccccc1-c1cc(-c2ccccc2Cl)[nH]n1 [IA-68] | 35 to 75%

SMILES | Emax
Oc1cc(F)ccc1-c1cc(-c2ccccc2)[nH]n1 [IA-70] | 35 to 75%
Cc1ccc(O)c(-c2cc(C3CCCCC3)n[nH]2)c1 [IA-71] | 35 to 75%
COc1ccc(-c2cc(-c3cc(C)ccc3O)[nH]n2)cc1C(F)(F)F [IA-72] | 35 to 75%
Cc1ccc(O)c(-c2cc(-c3cccc(C(F)(F)F)c3C)n[nH]2)c1 [IA-74] | 35 to 75%
Cc1ccc(O)c(-c2cc(-c3ccc(-c4ccc(S(C)(=O)=O)cc4)o3)n[nH]2)c1 [IA-76] | 35 to 75%
COc1ccc(O)c(-c2cc(-c3cccnc3Oc3ccccc3)[nH]n2)c1 [IA-77] | 35 to 75%
Oc1ccccc1-c1cc(-c2c(F)cccc2F)n[nH]1 [IA-78] | 35 to 75%
Cc1ccc(O)c(-c2cc(-c3ccccc3SC(F)F)n[nH]2)c1 [IA-79] | < 35%
CCOc1ccccc1-c1cc(-c2cc(C)ccc2O)[nH]n1 [IA-80] | 35 to 75%
Oc1ccccc1-c1cc(-c2cccc(F)c2)[nH]n1 [IA-81] | 35 to 75%
Cc1ccc(-c2cc(-c3ccc(C)cc3O)n[nH]2)cc1 [IA-82] | 35 to 75%
Cc1ccc(O)c(-c2cc(-c3ccccc3Oc3ccccc3)n[nH]2)c1 [IA-84] | 35 to 75%
Cc1cc(C)c(-c2cc(-c3cc(C)ccc3O)[nH]n2)c(C)c1 [IA-85] | 35 to 75%
Cc1ccc(O)c(-c2cc(-c3cccnc3Sc3ccc(Cl)cc3)n[nH]2)c1 [IA-86] | 35 to 75%
Cc1ccc(O)c(-c2cc(-c3cccc([N+](=O)[O-])c3)n[nH]2)c1 [IA-87] | 35 to 75%
Oc1ccc(Cl)cc1-c1cc(-c2ccc(F)cc2)[nH]n1 [IA-88] | 35 to 75%
Cc1ccc(O)c(-c2cc(-c3cc(Cl)ccc3C(F)(F)F)n[nH]2)c1 [IA-89] | 35 to 75%
Oc1ccc(Cl)cc1-c1cc(-c2ccc(C(F)(F)F)cc2)[nH]n1 [IA-90] | 35 to 75%
Cc1ccc(O)c(-c2cc(C(Cc3ccccc3)NS(=O)(=O)c3cccc4ccccc34)n[nH]2)c1 (centres unmarked) [IA-91] | 35 to 75%
Cc1cc(-c2cc(-c3cc(F)ccc3O)n[nH]2)c(C(F)(F)F)o1 [IA-92] | 35 to 75%
